Experimental data reported in patent US6528523B2, “Farnesyl protein transferase inhibitors” (Schering Corporation, priority 2000, dated 2003).

Experiments:
[1] = molecular target: T1, Farnesyl protein transferase (FPT) (Rattus norvegicus, UniProt Q02293+Q04631); assay: In vitro enzyme assay: inhibition of farnesyl protein transferase; format: biochemical; conditions: transfer of [3H]farnesyl from [3H]farnesyl pyrophosphate to Ras-CVLS
T1 construct: partially purified from rat brain by ammonium sulfate fractionation followed by Q-Sepharose; from tissue; host or cells: rat brain
Experimental: 1. In Vitro Enzyme Assay:
Human farnesyl protein transferase was also expressed in E. coli, using cDNA clones encoding both the a and b subunits. […] Human farnesyl protein transferase was partially-purified from the soluble protein fraction of E. coli as described above. […] Two forms of val^12-Ha-Ras protein were prepared as substrates for these enzymes, differing in their carboxy terminal sequence. One form terminated in cysteine-valine-leucine-serine (Ras-CVLS) the other in cystein-valine-leucine-leucine (Ras-CVLL). Ras-CVLS is a substrate for the farnesyl protein transferase while Ras-CVLL is a substrate for geranylgeranyl protein transferase I. The cDNAs encoding these proteins were constructed so that the proteins contain an amino-terminal extension of 6 histidine residues. Both proteins were expressed in Escherichia coli and purified using metal chelate affinity chromatography. The radio labelled isoprenyl pyrophosphate substrates, [^3H]farnesyl pyrophosphate and [^3H] geranylgeranyl pyrophosphate, were purchased from DuPont/New England Nuclear.
The reaction was allowed to proceed for 30 minutes at room temperature and then stopped with 0.5 ml of 4% sodium dodecyl sulfate (SDS) followed by 0.5 ml of cold 30% TCA. Samples were allowed to sit on ice for 45 minutes and precipitated Ras protein was then collected on GF/C filter paper mats using a Brandel cell harvester. […] Percent inhibition was calculated relative to the DMSO vehicle control.

Human tumor cells = assay: Soft agar assay (anchorage-independent growth); format: cell-based; conditions: colony outgrowth 10-16 days
Experimental: Anchorage-independent growth is a characteristic of tumorigenic cell lines. Human tumor cells are suspended in growth medium containing 0.3% agarose and an indicated concentration of a farnesyl transferase inhibitor. The solution is overlayed onto growth medium solidified with 0.6% agarose containing the same concentration of farnesyl transferase inhibitor as the top layer. After the top layer is solidified, plates are incubated for 10-16 days at 37° C. under 5% CO2 to allow colony outgrowth. After incubation, the colonies are stained by overlaying the agar with a solution of MTT (3-[4,5-dimethylthiazol-2-yl]-2,5-diphenyltetrazolium bromide, Thiazolyl blue) (1 mg/mL in PBS). Colonies are counted and the IC50's determined.

T1 sequence (Q02293 whole entry, one chain of several): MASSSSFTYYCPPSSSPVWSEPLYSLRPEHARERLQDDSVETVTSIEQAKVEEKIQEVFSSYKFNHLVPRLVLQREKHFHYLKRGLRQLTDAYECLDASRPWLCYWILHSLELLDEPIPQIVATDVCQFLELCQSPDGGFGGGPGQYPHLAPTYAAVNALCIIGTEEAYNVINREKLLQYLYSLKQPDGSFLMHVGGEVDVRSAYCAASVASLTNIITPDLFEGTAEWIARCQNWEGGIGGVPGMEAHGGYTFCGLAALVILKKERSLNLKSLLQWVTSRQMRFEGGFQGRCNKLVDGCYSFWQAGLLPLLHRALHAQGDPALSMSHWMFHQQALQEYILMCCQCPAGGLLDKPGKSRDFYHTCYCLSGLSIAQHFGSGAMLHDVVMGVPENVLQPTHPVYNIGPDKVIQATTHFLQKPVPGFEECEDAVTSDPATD

With `O=C(Cc1cc[n+]([O-])cc1)N1CCC(C2c3ncc(Br)cc3C=Cc3cc(Cl)cc(Br)c32)CC1` (single isomer, unassigned) [Compound 11] the IC50 [1] was 0.32 nM, the melting point was 137 to 139 °C and the IC50 (Human tumor cells) was 30 nM.
In the case of `O=C(Cc1cc[n+]([O-])cc1)N1CCC(C2c3ncc(Br)cc3C=Cc3cc(Cl)cc(Br)c32)CC1` (single isomer, unassigned) [Compound 12], the IC50 [1] is reported as > 17 nM and the melting point is reported as 142 to 143 °C.
In the case of `CS(=O)(=O)N1CCC(C2c3ncc(Br)cc3C=Cc3cc(Cl)cc(Br)c32)CC1` (single isomer, unassigned) [Compound 13], the IC50 [1] is reported as 3.3 nM, the melting point is reported as 84 to 85 °C and the IC50 (Human tumor cells) is reported as > 500 nM.
With `CS(=O)(=O)N1CCC(C2c3ncc(Br)cc3C=Cc3cc(Cl)cc(Br)c32)CC1` (single isomer, unassigned) [Compound 14] the IC50 [1] was > 18 nM and the melting point was 91 to 92 °C.
Compound `NC(=O)N1CCC(CC(=O)N2CCC(C3c4ncc(Br)cc4C=Cc4cc(Cl)cc(Br)c43)CC2)CC1` (single isomer, unassigned) [Compound 15] has an IC50 [1] of 0.4 nM, a melting point of 146 to 147 °C and an IC50 (Human tumor cells) of 50 nM.
For `NC(=O)N1CCC(CC(=O)N2CCC(C3c4ncc(Br)cc4C=Cc4cc(Cl)cc(Br)c43)CC2)CC1` (single isomer, unassigned) [Compound 16], the IC50 [1] was 16 nM and the melting point was 142 to 143 °C.
